This assay relates to suture mesenchymal cells. Description: Western blot of Runx2 and OPN (osteogenic differentiation). The settings on record: 20 μM Wnt agonist 1 or 100 nM LY2090314, one or two weeks, vs vehicle. The class given is cell-based, mouse. As for the experimental part: Suture mesenchymal cells from one-month-old C57BL/6J mice were cultured with 20 μM Wnt agonist 1 (Selleck, S8178) or 100 nM LY2090314 (Selleck, S7063) for one or two weeks in αMEM. Medium was changed every other day. Total protein was extracted using a solution of loading buffer (Cell Signaling Technology, 7723S), protease inhibitor (Thermo Fisher Scientific, 1861278) and DTT (Cell Signaling Technology, 7723S), then separated by 10% SDS-PAGE and transferred to PVDF membranes (Millipore, ISEQ00005). Membranes were blocked with 5% non-fat dry milk dissolved in TBST for 2 hours at room temperature with gentle shaking, and then incubated with primary antibodies: anti-Runx2 (Cell signaling technology 12556, 1:1000), anti-OPN (Abcam ab63856, 1:500), and anti-βactin (Abcam ab20272, 1:1000) at 4° C. overnight followed by corresponding horseradish-peroxidase (HRP)-conjugated secondary antibodies. Protein expression was detected by Bio-Rad ChemiDoc Touch (Bio-Rad) and intensities of bands were quantitated by Image J software.

Among the data in patent US12629452B2, “Cranial suture regeneration” (University of Southern California, priority 2021, dated 2026) are OPN expression level and Runx2 expression level values, retold here.

For the compound `O=C1NC(=O)C(c2cnc3ccccn23)=C1c1cn2c3c(cc(F)cc13)CN(C(=O)N1CCCCC1)CC2` [LY2090314], the OPN expression level entry is “significantly increased” and the Runx2 expression level result is on record as “significantly increased”.
In the case of `COc1cccc(-c2cc(NCc3ccc4c(c3)OCO4)nc(N)n2)c1` [Wnt agonist 1], the OPN expression level entry is reported as “significantly increased” and the Runx2 expression level result is “significantly increased”.
